# In patent publication US20060019980A1, “Methods for treating or preventing erectile dysfunction or urinary incontinence” (Inotek Pharmaceutical, Corp., priority 2004, published 2006):
# Counter-ions that a name gives are not always drawn.
# Tested on: male Sprague-Dawley rats
# Experiment: cavernous nerve crush injury rat model: erectile function (ICP, ICP/MAP) on cavernosal nerve stimulation
# Format: in vivo
# Procedure: Experiments were conducted in male Sprague-Dawley rats according to previously published methods for forceps-induced nerve crush injury and erectile function measurements (Rehman, J., et al., Urology 51:640-644, 1998; Sezen, S. F., et al., Int J. Impot. Res. 14:506-12, 2002). Subjects were anesthetized with Phenobarbital. The prostate of the subjects was exposed and the cavernosal nerve was clipped on either side with a forceps to induce mechanical injury (crush). This rat model mimics the nerve injury that develops during human male prostatectomy, leading to nerve injury and subsequent erectile dysfunction. Subjects were studied 2 weeks after the injury. Two groups of subjects were used, one group treated with vehicle and one group treated with compound 8l methanesulfonate salt. Compound 8l methanesulfonate salt was injected at 30 mg/kg i.v. immediately before the crush injury, and on the following day at the same dose. Thereafter, for 12 days, subjects were treated with 60 mg/kg compound 8l methanesulfonate salt intraperitoneally. At 2 weeks, subjects were re-anesthetized and measured for mean arterial blood pressure (MAP) and intracavernosal pressure (ICP). Cavernosal nerve stimulation was conducted at 5 and 7.5 V using a square pulse stimulator for 30 msec. ICP was determined as the area under curve (mmHg×sec). In addition, IPC/MAP ratios were determined.
smiles,measurement,setting,value
O=c1[nH]c2c(c3ccccc13)Cc1cc(S(=O)(=O)NCCCN3CCOCC3)ccc1-2 [Compound 8l methanesulfonate salt],erectile function,"rat model that mimics the nerve injury that develops during human male prostatectomy, versus vehicle",improves erectile function
same,"ICP (intracavernosal pressure, area under curve)","rats 2 weeks after cavernous nerve crush injury, 30 mg/kg i.v. immediately before injury and next day, then 60 mg/kg i.p. for 12 days, cavernosal nerve stimulation at 5 and 7.5 V, mean ± SEM, n = 14-16, *p < 0.05, vehicle 1124 ± 212, normal approx. 4000",1471 ± 151* mmHg × sec
same,ICP/MAP ratio,"rats 2 weeks after cavernous nerve crush injury, 30 mg/kg i.v. immediately before injury and next day, then 60 mg/kg i.p. for 12 days, mean ± SEM, n = 14-16, *p < 0.05, vehicle 0.16 ± 0.03, normal approx. 0.8-0.9",0.23 ± 0.02*
